The term IC50 denotes the concentration that inhibits the measured activity by half.

Like-named read-outs stand apart in the source and are kept apart here.

One experiment concerns the target Mcl-1 protein (UniProtKB primary accession number: Q07820) (Homo sapiens, UniProt Q07820). Put plainly: Inhibition of Mcl-1 by fluorescence polarisation, Method 1. The format is binding. To be noted: read-out: IC50 (M) Mcl-1 FP. The method in brief: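 Compounds were tested as 11-point serial dilutions at 5% final DMSO against 5 nM Mcl-1 with 1 nM fluorescein-labelled ligand in 10 mM HEPES, 150 mM NaCl, 0.05% Tween 20, pH 7.4. Relative binding potency was read by fluorescence polarisation.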
On the technique in general: Polarisation of emitted light reports the rotation of a fluorescent probe.

Experiment [1] relates to H929 multiple myeloma tumour line. The experiment is described as follows: In vitro cytotoxicity, Microculture Tetrazolium Assay. The format is cell-based. The conditions noted are these: Homo sapiens, NCI-H929, 48 h, H929 cells, 48 hours exposure, read-out: IC50 (μM) MTT H929. How it is done: The cytotoxicity studies were carried out on the H929 multiple myeloma tumour line.
The cells are distributed onto microplates and exposed to the test compounds for 48 hours.

Setting [2] is: fluorescence polarisation test, Method 2 values are underlined in the patent (underlining not visible here).
The mark [3] stands for this setting: fluorescence polarisation, Method 1, or Method 2.

Sequence of Mcl-1 protein (Q07820 whole entry): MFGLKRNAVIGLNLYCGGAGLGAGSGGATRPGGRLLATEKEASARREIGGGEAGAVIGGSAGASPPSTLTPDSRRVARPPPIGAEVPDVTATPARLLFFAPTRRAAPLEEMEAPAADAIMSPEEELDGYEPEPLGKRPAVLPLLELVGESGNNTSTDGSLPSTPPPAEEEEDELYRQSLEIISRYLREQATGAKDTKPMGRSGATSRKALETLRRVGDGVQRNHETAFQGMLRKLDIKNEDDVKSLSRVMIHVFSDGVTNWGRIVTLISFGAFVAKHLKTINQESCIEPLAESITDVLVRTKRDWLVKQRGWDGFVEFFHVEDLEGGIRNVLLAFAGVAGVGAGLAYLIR

With `Cc1c(-c2c(-c3ccc(F)cc3)sc3ncnc(OC(Cc4ccccc4OCc4ccnc(-n5ccnn5)n4)C(=O)O)c23)ccc(OCCN2CCN(C)CC2)c1Cl` [Example 51, (2R)-2-{[(5Sa)-5-{3-chloro-2-methyl-4-[2-(4-methylpiperazin-1-yl)ethoxy]phenyl}-6-(4-fluorophenyl)thieno[2,3-d]pyrimidin-4-yl]oxy}-3-(2-{[2-(1H-1,2,3-triazol-1-yl)pyrimidin-4-yl]methoxy}phenyl)propanoic acid], the IC50 is 3.5e-09 M at Mcl-1 protein (setting [2]) and 0.038 µM in experiment [1] (MTT).
Turning to `Cc1c(-c2c(-c3ccco3)sc3ncnc(OC(Cc4ccccc4OCc4ccnc(N(C)C)n4)C(=O)O)c23)ccc(OCCN2CCN(C)CC2)c1Cl` [Example 251, (2R)-2-{[(5Sa)-5-{3-chloro-2-methyl-4-[2-(4-methylpiperazin-1-yl)ethoxy]phenyl}-6-(furan-2-yl)thieno[2,3-d]pyrimidin-4-yl]oxy}-3-(2-{[2-(dimethylamino)pyrimidin-4-yl]methoxy}phenyl)propanoic acid], the IC50 was determined as 6.3e-09 M on Mcl-1 protein (setting [2]) and 0.035 µM in experiment [1] (MTT).
As for `CCn1nccc1COc1ccccc1CC(Oc1ncnc2sc(-c3cccc(F)c3F)c(-c3ccc(OCCN4CCN(C)CC4)c(Cl)c3C)c12)C(=O)O` [Example 704, (2R)-2-{[(5Sa)-5-{3-chloro-2-methyl-4-[2-(4-methylpiperazin-1-yl)ethoxy]phenyl}-6-(2,3-difluorophenyl)thieno[2,3-d]pyrimidin-4-yl]oxy}-3-{2-[(1-ethyl-1H-pyrazol-5-yl)methoxy]phenyl}propanoic acid], the IC50 was 9.9e-09 M at Mcl-1 protein (setting [3]) and 0.025 µM in experiment [1] (MTT).
For `COc1nccc(COc2ccccc2CC(Oc2ncnc3sc(-c4ccc(F)c(O)c4)c(-c4ccc(OCCN5CCN(C)CC5)c(Cl)c4C)c23)C(=O)O)n1` [Example 595, (2R)-2-{[(5Sa)-5-{3-chloro-2-methyl-4-[2-(4-methylpiperazin-1-yl)ethoxy]phenyl}-6-(4-fluoro-3-hydroxyphenyl)thieno[2,3-d]pyrimidin-4-yl]oxy}-3-{2-[(2-methoxypyrimidin-4-yl)methoxy]phenyl}propanoic acid], in that order: 6.2e-09 M and 0.114 µM.
On the same counts, the results for `Cc1c(OCCN2CCN(C)CC2)ccc(-c2c(-c3ccco3)sc3ncnc(OC(Cc4ccccc4OCC(F)(F)F)C(=O)O)c23)c1C` [Example 673, (2R)-2-[(5Sa)-5-[2,3-dimethyl-4-[2-(4-methylpiperazin-1-yl)ethoxy]phenyl]-6-(2-furyl)thieno[2,3-d]pyrimidin-4-yl]oxy-3-[2-(2,2,2-trifluoroethoxy)phenyl]propanoic acid] are 1.1e-08 M and 0.576 µM.
`COc1ccccc1-c1nccc(COc2ccccc2CC(Oc2ncnc3sc(-c4ccc(F)cc4)c(-c4ccc(OCCN5CCN(C)CC5)c(Cl)c4C)c23)C(=O)OCCN(C)C)n1` [Example 813, 2-(dimethylamino)ethyl (2R)-2-{[(5Sa)-5-{3-chloro-2-methyl-4-[2-(4-methylpiperazin-1-yl)ethoxy]phenyl}-6-(4-fluorophenyl)thieno[2,3-d]pyrimidin-4-yl]oxy}-3-(2-{[2-(2-methoxyphenyl)pyrimidin-4-yl]methoxy}phenyl)propanoate]: the IC50 is 5.47e-09 M on Mcl-1 protein (fluorescence polarisation test, Method 1, or Method 2 where the value is underlined (underlining not visible)) and 0.011 µM in experiment [1] (cell viability).
On to `COc1cnc(COc2ccccc2CC(Oc2ncnc3sc(-c4ccco4)c(-c4ccc(OCCN5CCN(C)CC5)c(Cl)c4C)c23)C(=O)O)cn1` [Example 270, (2R)-2-{[(5Sa)-5-{3-chloro-2-methyl-4-[2-(4-methylpiperazin-1-yl)ethoxy]phenyl}-6-(furan-2-yl)thieno[2,3-d]pyrimidin-4-yl]oxy}-3-{2-[(5-methoxypyrazin-2-yl)methoxy]phenyl}propanoic acid], for which the IC50 is 1.2e-08 M on Mcl-1 protein (setting [2]) and 0.068 µM in experiment [1] (MTT).
For the compound `COc1ccccc1CC(Oc1ncnc2sc(-c3cc(C)co3)c(-c3ccc(OCCN4CCN(C)CC4)c(Cl)c3C)c12)C(=O)O` [Example 529, (2R)-2-{[(5Sa)-5-{3-chloro-2-methyl-4-[2-(4-methylpiperazin-1-yl)ethoxy]phenyl}-6-(4-methylfuran-2-yl)thieno[2,3-d]pyrimidin-4-yl]oxy}-3-(2-methoxyphenyl)propanoic acid], the IC50 amounted to 1.3e-08 M at Mcl-1 protein (setting [3]) and 0.308 µM in experiment [1] (MTT).
Consider `Cc1c(-c2c(-c3ccco3)sc3ncnc(OC(Cc4ccccc4OCc4ccnc(NCc5ccccc5)n4)C(=O)O)c23)ccc(OCCN2CCN(C)CC2)c1Cl` [Example 254, (2R)-3-(2-{[2-(benzylamino)pyrimidin-4-yl]methoxy}phenyl)-2-{[(5Sa)-5-{3-chloro-2-methyl-4-[2-(4-methylpiperazin-1-yl)ethoxy]phenyl}-6-(furan-2-yl)thieno[2,3-d]pyrimidin-4-yl]oxy}propanoic acid], for which the IC50 at Mcl-1 protein (setting [2]) was 3.3e-09 M; in experiment [1] (MTT) it was 0.044 µM.
For `Cc1c(-c2c(-c3ccco3)sc3ncnc(OC(Cc4ccccc4OCc4cc(Cl)ccn4)C(=O)O)c23)ccc(OCCN2CCN(C)CC2)c1Cl` [Example 222, (2R)-2-{[(5Sa)-5-{3-chloro-2-methyl-4-[2-(4-methylpiperazin-1-yl)ethoxy]phenyl}-6-(furan-2-yl)thieno[2,3-d]pyrimidin-4-yl]oxy}-3-{2-[(4-chloropyridin-2-yl)methoxy]phenyl}propanoic acid], in that order: 7.4e-09 M and 0.314 µM.
As for `Cc1c(-c2c(-c3ccc(F)o3)sc3ncnc(OC(Cc4ccccc4OCc4ccnc(-c5ccsc5)n4)C(=O)O)c23)ccc(OCCN2CCN(C)CC2)c1Cl` [Example 173, (2R)-2-{[(5Sa)-5-{3-chloro-2-methyl-4-[2-(4-methylpiperazin-1-yl)ethoxy]phenyl}-6-(5-fluorofuran-2-yl)thieno[2,3-d]pyrimidin-4-yl]oxy}-3-(2-{[2-(thiophen-3-yl)pyrimidin-4-yl]methoxy}phenyl)propanoic acid], the IC50 at Mcl-1 protein (setting [2]) came out at 3.1e-09 M; in experiment [1] (MTT) it was 0.004 µM.
For `Cc1c(-c2c(-c3ccco3)sc3ncnc(OC(Cc4ccccc4OCc4cccc(Cl)n4)C(=O)O)c23)ccc(OCCN2CCN(C)CC2)c1Cl` [Example 236, (2R)-2-{[(5Sa)-5-{3-chloro-2-methyl-4-[2-(4-methylpiperazin-1-yl)ethoxy]phenyl}-6-(furan-2-yl)thieno[2,3-d]pyrimidin-4-yl]oxy}-3-{2-[(6-chloropyridin-2-yl)methoxy]phenyl}propanoic acid], in that order: 7.4e-09 M and 0.137 µM.
With `COc1ccc(COc2ccccc2CC(Oc2ncnc3sc(-c4cccc(F)c4)c(-c4ccc(OCCN5CCN(C)CC5)c(Cl)c4C)c23)C(=O)O)cc1` [Example 710, (2R)-2-{[(5Sa)-5-{3-chloro-2-methyl-4-[2-(4-methylpiperazin-1-yl)ethoxy]phenyl}-6-(3-fluorophenyl)thieno[2,3-d]pyrimidin-4-yl]oxy}-3-{2-[(4-methoxybenzyl)oxy]phenyl}propanoic acid], the IC50 came out at 2.4e-09 M on Mcl-1 protein (setting [3]) and 0.384 µM in experiment [1] (MTT).
For `COCCOc1ccccc1-c1nccc(COc2ccccc2CC(Oc2ncnc3sc(-c4ccc(F)cc4)c(-c4ccc(OCCN(C)C)c(Cl)c4C)c23)C(=O)O)n1` [Example 753, (2R)-2-{[(5Sa)-5-{3-chloro-4-[2-(dimethylamino)ethoxy]-2-methylphenyl}-6-(4-fluorophenyl)thieno[2,3-d]pyrimidin-4-yl]oxy}-3-[2-({2-[2-(2-methoxyethoxy)phenyl]pyrimidin-4-yl}methoxy)phenyl]propanoic acid], in that order: 3e-09 M and 0.005 µM.
For the compound `COCCNC(=O)COc1ccccc1CC(Oc1ncnc2sc(-c3ccc(F)o3)c(-c3ccc(OCCN4CCN(C)CC4)c(Cl)c3C)c12)C(=O)O` [Example 157, (2R)-2-{[(5Sa)-5-{3-chloro-2-methyl-4-[2-(4-methylpiperazin-1-yl)ethoxy]phenyl}-6-(5-fluorofuran-2-yl)thieno[2,3-d]pyrimidin-4-yl]oxy}-3-(2-{2-[(2-methoxyethyl)amino]-2-oxoethoxy}phenyl)propanoic acid], the IC50 at Mcl-1 protein (setting [2]) came out at 7e-09 M; in experiment [1] (MTT), 0.286 µM.
On the same counts, the results for `COc1ccccc1CC(Oc1ncnc2sc(-c3ccco3)c(-c3ccc(OC4CCN(C)CC4)c(Cl)c3C)c12)C(=O)O` [Example 304, (2R)-2-{[(5Sa)-5-{3-chloro-2-methyl-4-[(1-methylpiperidin-4-yl)oxy]phenyl}-6-(furan-2-yl)thieno[2,3-d]pyrimidin-4-yl]oxy}-3-(2-methoxyphenyl)propanoic acid] are 1.1e-08 M and 1.7 µM.
On the same counts, the results for `Cc1c(-c2c(-c3ccco3)sc3ncnc(OC(Cc4ccccc4OC4CCCC4)C(=O)O)c23)ccc(OCCN2CCN(C)CC2)c1Cl` [Example 212, (2R)-2-{[(5Sa)-5-{3-chloro-2-methyl-4-[2-(4-methylpiperazin-1-yl)ethoxy]phenyl}-6-(furan-2-yl)thieno[2,3-d]pyrimidin-4-yl]oxy}-3-[2-(cyclopentyloxy)phenyl]propanoic acid] are 1.6e-08 M and 0.616 µM.
Take `CCCCn1nccc1COc1ccccc1CC(Oc1ncnc2sc(-c3ccc(N4CCOCC4)nc3)c(-c3ccc(OCCN4CCN(C)CC4)c(Cl)c3C)c12)C(=O)O` [Example 619, (2R)-3-{2-[(1-butyl-1H-pyrazol-5-yl)methoxy]phenyl}-2-[((5Sa)-5-{3-chloro-2-methyl-4-[2-(4-methylpiperazin-1-yl)ethoxy]phenyl}-6-[6-(morpholin-4-yl)pyridin-3-yl]thieno[2,3-d]pyrimidin-4-yl)oxy]propanoic acid]: the IC50 came out at 7e-09 M at Mcl-1 protein (setting [3]) and 0.336 µM in experiment [1] (MTT).

The record behind these values is US9670227B2, “Thienopyrimidine derivatives, a process for their preparation and pharmaceutical compositions containing them” (LES LABORATOIRES SERVIER, priority 2013, dated 2017).
